Source: publication PMC12295306, “Gut Microbial Postbiotics as Potential Therapeutics for Lymphoma: Proteomics Insights of the Synergistic Effects of Nisin and Urolithin B Against Human Lymphoma Cells” (International Journal of Molecular Sciences, 2025)
One block for each molecule: values may come before it.

Legend:
[1] = test system: HKB-11 human lymphoma cells; experiment: Alamar Blue antiproliferative assay, HKB-11; format: cell-based; details: HKB-11, 72 h, single postbiotics, GraphPad Prism nonlinear regression; for IC50: read-out: IC50 (concentration required to inhibit 50% of cell growth)
Procedure: The cell viability of the HKB-11, Hs 313.T, and HS-5 cells after treatment with different concentrations of the seven different postbiotics, including SCFA salts (magnesium acetate, sodium propionate, and sodium butyrate), UA and UB, purine nucleoside (inosine), and bacteriocin (N), was determined using the Alamar Blue assay as per the method described earlier. Briefly, 100 μL of cells was cultured in 96-well plates at a 3 × 10^5 cells/mL seeding density. After 24 h, the cells were treated with 16,000 µM of each postbiotic except for the urolithins, which were applied at 500 µM using a 1:2 serial dilution across a 10-point dose–response curve, followed by a 72 h incubation. A positive control using doxorubicin was prepared at a concentration of 4 μM, and an untreated control with 0.1% DMSO was added to every plate. At the end of the incubation period, the culture media were removed, and 100 μL of a 0.1 mg/mL Alamar Blue solution (resazurin, prepared as a stock solution at 1 mg/mL in freshly made PBS, followed by a 1:10 dilution with serum-free media) was added to each well. The fluorescence levels were assessed using a microplate spectrophotometer (BMG CLARIOstar, Mornington, VIC, Australia) with an excitation wavelength of 555 nm and emission measurement at 595 nm. The compounds were tested in triplicate, with the untreated control taken as 100% cell viability.
Data were collected and managed using MS Office Excel and GraphPad Prism for statistical analyses and visualisation. Data collection and analyses were carried out in triplicate, and the outcomes were presented as the mean ± standard deviation. Statistical significance between the mean values was determined at p ≤ 0.05 employing a two-way ANOVA. Tukey and Dunnett’s tests were utilised within GraphPad Prism software to perform nonlinear regression and multiple comparisons. Furthermore, GraphPad Prism software computed the IC50 value (representing the drug concentration required to achieve a 50% cell growth inhibition). The experimental groups in the proteomics study were compared statistically using unpaired t-tests, assuming equal variances. Candidate proteins were selected based on an absolute log2 fold change ≥ 0.58 and a Q-value ≤ 0.05. Enrichment analysis was subsequently conducted using Ingenuity Pathway Analysis (IPA), applying a significance threshold of adjusted Q ≤ 0.05 to identify functionally enriched pathways, focusing on those with an absolute z-score of ≥1.

[2] = test system: HKB-11 lymphoma cells; experiment: ROS production, H2DCFDA assay; format: cell-based, human; details: 4 h
Procedure: Briefly, HKB-11 lymphoma cells (2.5 × 10^5 cells/mL) were cultured in a 96-well plate, allowed to adhere overnight, and treated with 20 μM H2DCFDA for 45 min to assess ROS levels. The dye solution was removed, and cells were washed with 1× buffer. Next, the cells were treated with N (8000 μM), N (4000 μM), UB (500 μM), UB (250 μM), N/UB (3500 μM), N/UB (1750 μM), N/UB (5750 μM), N/UB (2875 μM), Dox (4 μM), and tert-butyl hydroperoxide (TBHP) (150 μM) and then incubated at 37 °C for 4 h. Finally, the plate was immediately read at Ex/Em = 485/535 nm using a microplate spectrophotometer (BMG CLARIOstar, VIC, Australia). The fold change in ROS production was determined relative to the untreated control (cells treated with the supplement buffer according to the manufacturer’s protocol).

[3] = test system: HKB-11 lymphoma cells; experiment: Flow cytometry apoptosis profile, Annexin V-CF Blue / 7-AAD; format: cell-based, human; details: HKB-11, 4 µM, 24 h; p ≤ 0.0001
Procedure: The HKB-11 cells were cultured in T75 cell culture flasks with an initial density of 1 × 10^6 cells per 10 mL at 37 °C in the presence of 5% CO2 for 24 h. The following day, the cell culture media was removed from each flask and replaced with fresh FBS-containing media. […] An FBS-containing medium was used as the untreated control. The flasks were then incubated at 37 °C with 5% CO2 for 24 h. Then, the cell culture media from each flask were collected. Subsequently, trypsin (0.25% w/v) was applied to the flasks for 4 min at 37 °C. The trypsin reaction was neutralised with an equal volume of 10% FBS serum-containing media, and the cells were combined with the previously collected media. The cell pellets were obtained by centrifuging at 500× g for 5 min at room temperature (RT). This procedure was repeated by suspending the cell pellets in 1 mL of PBS each time. The collected cell pellets from each treatment were immediately suspended in 500 μL of 1× binding buffer and gently mixed by pipetting. Annexin V-CF Blue (5 μL) and 7-AAD (5 μL) staining solutions were added to 100 μL of the cell suspension. The stained cells were incubated for 15 min in the dark at RT, after which 400 μL of a 1× assay buffer was added to each cell suspension. Subsequently, the cells were examined using a flow cytometer (Novocyte 3000, ACEA Biosciences Inc., San Diego, CA, USA), and data analysis and processing were performed using NovoExpress software (version 1.5.0, ACEA Biosciences Inc., CA, USA). In the initial step, the cells were gated on forward and side scatter modes to exclude cell aggregates and debris near the origin. The cells were then gated on dot plots, where Annexin V-CF in Pacific Blue was plotted against 7-AAD fluorescence in PerCP. Quadrants were positioned relative to the untreated control, indicating live cells ([…] and −7-AAD) appearing in the lower-left quadrant, early apoptotic cells (+Annexin V and −7-AAD) in the lower-right quadrant, late apoptotic cells (+Annexin V and +7-AAD) in the upper-right quadrant, and necrotic cells (−Annexin V and +7-AAD) in the upper-left quadrant. For statistical analyses and visualisation, the percentage data of cells in each quadrant after different treatments (n = 3) were exported to GraphPad Prism software (version 9.0, San Diego, CA, USA).

IC50 [1]: 14600 µM
Compound: CCC(=O)[O-].[Na+] [Sodium Propionate, sodium propionate]

IC50 (concentration required to inhibit 50% of cell growth) [1]: could not be calculated
Compound: O=c1[nH]cnc2c1ncn2[C@@H]1O[C@H](CO)[C@@H](O)[C@H]1O [Inosine, inosine]

IC50 [1]: 2020 µM
Compound: CCCC(=O)[O-].[Na+] [Sodium Butyrate, sodium butyrate]

Compound: COc1cccc2c1C(=O)c1c(O)c3c(c(O)c1C2=O)C[C@@](O)(C(=O)CO)C[C@@H]3O[C@H]1C[C@H](N)[C@H](O)[C@H](C)O1 [Dox, doxorubicin, reference compound]
ROS production (positive control) ([2]; HKB-11, 4 μM): induced high ROS production
Apoptosis induction (positive control) [3]: significantly induced apoptosis
Necrotic cell death compared to the untreated control and other treatment groups [3]: markedly higher proportion of necrotic cell death

IC50 [1]: 384 µM
Compound: O=c1oc2cc(O)ccc2c2ccc(O)cc12 [UA, Urolithin A]

Compound: CC(C)(C)OO [TBHP, tert-butyl hydroperoxide, reference compound]
ROS production (positive control) ([2]; HKB-11, 150 μM): induced high ROS production

IC50 (concentration required to inhibit 50% of cell growth) [1]: could not be calculated
Compound: CC(=O)[O-].CC(=O)[O-].[Mg+2] [Magnesium Acetate, magnesium acetate]
